From patent US20110230571A1, “DIAGNOSTIC AND THERAPEUTIC PROTOCOLS” (ALFRED HEALTH, priority 2007, published 2011)
Where two headings read alike, the source gives them in different places.

Legend:
Assay type in all cases: cell-based
[1] = system: HIV-1 from patient plasma on TZMbl cells; experiment: Infection of TZMbl indicator cells with virus pelleted from patient plasma (Example 2); conditions: samples in DMEM-10 (n=9), plasma collected in the named anti-coagulant
Experimental: (§1) Blood is collected from HIV-1-infected individuals in sodium heparin, anti-coagulant citrate dextrose (ACD) a ethylenediamine tetraacetic acid (EDTA) and/or any other anti-coagulant blood tubes. The plasma isolated from each tube is stored at −80° C. until use.
To pellet the virus, plasma was diluted 1 in 2 (to a final volume of 800 μL) and layered over a 20% w/v sucrose cushion. The plasma was centrifuged at 17,000×g for 2 hours at 4° C. […]
Samples are also resuspended in DMEM-10 media and added to TZMbl cells. […] Upon integration of the host genome with the HIV-1 genome, these two genes are expressed and can be measured (NIH AIDS Research and Reference Reagent Program, Division of AIDS, NIAID, NIH (Derdeyn et al. Journal of Virology 74:8358-8367, 2000; Platt et al. Journal of Virology 72:2855-2864, 1998; Wei et al. Antimicrobial Agents and Chemotherapy 46:1896-1905, 2002). Following HIV infection of TZMbls, there is an increase in β-gal expression over the next 5 days. Infection is most simply measured by counting the number of cells that express β-gal (or are blue). The maximum number of blue cells that can be counted by this assay is 300 cells. […]
At day 5 post-infection, GHOST cells are washed in phosphate buffered saline (PBS), detached from the plate with Trypsin-EDTA, washed twice in FACS wash and fixed with FACS Fix. […] Uninfected cells are analyzed as a negative/background control.

[2] = system: HIV-1 from patient plasma on GHOSTX4R5 cells
Experimental: as §1
To pellet the virus, plasma was diluted 1 in 2 (to a final volume of 800 μL) and layered over a 20% w/v sucrose cushion. The plasma was centrifuged at 17,000×g for 2 hours at 4° C. The supernatant was aspirated and the viral pellet (viral isolate) was resuspended in 50 μL of GHOST media (Dulbecco's Modified Eagle's Medium (DMEM, Invitrogen, Auckland, NZ), 10% v/v Cosmic calf serum (Quantum Scientific, Milton, Qld), 1× Penicillin/Streptomycin/Glutamine (Invitrogen), 1 μg/mL Puromycin (Sigma, St. Louis, Mo.), 100 μg/mL Hygromycin (Sigma), 500 μg/mL G418 (AG Scientific, San Diego, Calif.)) or DMEM-10 (DMEM, 10% v/v Cosmic calf serum) in the presence and absence of Heparin (20 U/mL, David Bull Laboratories, Melbourne, Australia). All samples contain polybrene at 2 μg/mL. Samples resuspended in DMEM-10 contain 40 μg/mL DEAE-Dextran.
Samples were resuspended in GHOST media and added to GHOSTX4R5 cells which have been seeded 24 hours previously in a 96-well flat-bottomed plate at 10,000 cells/well. GHOSTX4R5 cells are an adherent cell line derived from human osteosarcoma (HOS cells). They are stably transfected with the HIV-2 LTR driving hGFP construct and express green fluorescent protein (GFP) when productively infected with HIV or SIV. The cells also stably express surface CD4, CCR5 and CXCR4 (Morner et al. Journal of Virology 73:2342-2349, 1999) (NIH AIDS Research and Reference Reagent Program, Division of AIDS, NIAID, NIH).
Both cell lines are infected at the same time with HIV-1 strains 89.6 (uses both CXCR4 and CCR5), NL4-3 (uses CXCR4 only) and AD8 (uses CCR5 only) as positive controls for infection. The cells are then subjected to spinoculation—centrifugation at 1200×g for 2 hours at room temperature. The volume of media is increased to 150 μL with media and the cells are incubated for 5 days. Samples are observed for the presence of clot formation at all stages.
At day 5 post-infection, GHOST cells are washed in phosphate buffered saline (PBS), detached from the plate with Trypsin-EDTA, washed twice in FACS wash and fixed with FACS Fix. The cells are then analyzed by flow cytometry for expression of GFP as an indication of HIV-1 infection. TZMbl cells are washed in PBS and fixed for 5 mins in fixative. Cells are washed once and 50 μL of β-gal substrate is added to each well. The cells are incubated at 37° C. for 2 hours. […] Under a light microscope, the number of blue-stained (HIV-1 infected) foci are counted. Uninfected cells are analyzed as a negative/background control.

[3] = system: HIV-1 from patient plasma on GHOSTX4R5 cells; conditions: for number of patients whose virus infected GHOSTX4R5 cells: of 5 patients
Experimental: Matched patient blood samples were collected from HIV-1 positive, viraemic individuals, in sodium heparin, ACD and EDTA blood tubes.
To prepare a viral isolate pellet, plasma was diluted 1 in 2 (to a final volume of 800 μL) and layered over a 20% v/v sucrose cushion. The plasma was centrifuged at 17,000×g for 2 hours at 4° C. The supernatant was aspirated and the viral pellet was resuspended in 50 μL media as follows: • Sodium heparin samples: • Resuspended in GHOST media. • ACD samples: • One sample resuspended in GHOST media. • One sample resuspended in GHOST media plus Heparin at 20 U/mL. • One sample resuspended in GHOST media plus EDTA* • EDTA samples: • One sample resuspended in GHOST media. • One sample resuspended in GHOST media plus Heparin at 20 U/mL. • One sample resuspended in GHOST media plus ACD*
*ACD and EDTA were obtained by filling collection tubes with 9 mL of GHOST media. This media was then used undiluted to resuspend the pellet.
All samples contained Polybrene at 2 μg/mL.
Samples were added to GHOSTX4R5 cells which had been seeded the night before in a 96-well flat-bottomed TC plate at 10,000 cells/well. The cells were subjected to Spinoculation—centrifugation at 1200×g for 2 hours at room temperature. The volume of media was increased to 150 μL with GHOSTX4R5 media and the cells were incubated for 5 days.
The cells were washed in PD, detached from the plate with Trypsin-EDTA, washed 2× in FACS wash and fixed with FACS Fix. The cells were then analyzed by flow cytometry for GFP expression as an indication of HIV-1 infection. Cells infected with HIV-1 lab strains 89.6, NL4-3 and AD8 were run concurrently as positive controls for infection. Uninfected cells were analyzed as a negative/background control.

[4] = GHOSTX4R5 cells, samples in GHOST media (n=10), plasma collected in the named anti-coagulant
[5] = Day 5 post-infection, named anti-coagulant combination

Compound	patient samples with viral infection observed [1] [%]	patient samples with viral infection observed [2, 4] [%]	mean number of infected cells ([3]; 5 patients, ACD or EDTA added to samples)	number of patients whose virus infected GHOSTX4R5 cells [3, 5]	patient samples with viral infection observed ([2]; GHOSTX4R5 cells (n=10), plasma collected in ACD, heparin added to the resuspended plasma pellet) [%]	patient samples with viral infection observed ([2]; GHOSTX4R5 cells (n=10), samples collected in EDTA to which heparin had been added) [%]	mean number of GFP positive cells per 100,000 cells ([3]; 5 patients, blood collected in sodium heparin, compared with other anti-coagulant combinations)	mean number of infected cells ([3]; 5 patients, heparin added to samples collected in ACD or EDTA, versus ACD or EDTA alone)	number of patients whose virus infected GHOSTX4R5 cells ([3]; viral isolates derived from ACD plasma to which heparin had been added)
O=C(O)CN(CCN(CC(=O)O)CC(=O)O)CC(=O)O [EDTA, ethylenediamine tetraacetic acid]	22	30	very low	4	–	–	–	–	–
heparin	33	40	–	3	50	40	highest	slightly improved	5
